Read-outs that look alike come from different tables or passages of the source.
Tested on: human peripheral blood mononuclear cells (PBMCs)
Test: ELISA assay of immunocyte activator: induction of IFN-γ in human PBMCs
Type: cell-based
Protocol: The immune activity of each compound is represented by the function of inducing human peripheral blood mononuclear cells (PBMCs) to produce the immune cytokine IFN-γ by, and the EC50 values thereof are shown in Table 3.
• 1) Peripheral blood samples from healthy human volunteer were collected into heparin anticoagulant tubes to reach 5 mL of fresh blood, and PBS was added at a ratio of 1:1 to dilute the blood (2 mL+2 mL in conventional blood collection tubes). • 2) 5 mL of lymphocyte separation medium was put in a 15 mL sterile centrifuge tube for use. • 3) The diluted blood was aspirated and slowly added from 1 cm above the separation medium along the tube wall, so that the diluted blood overlaid the separation medium and formed a distinct interface therewith. • 4) The centrifuge tube was centrifuged at 2000 rpm at room temperature for 20 min. Now five layers formed in the centrifuge tube: the top layer was plasma layer, and the layer between the plasma layer and the lymphocyte separation medium was the lymphocyte layer as a white film. • 5) The mononuclear cell layer as a white film in the middle was aspirated carefully and mononuclear cells were aspirated as many as possible. The mononuclear cells were washed by more than 5 volumes of PBS twice, and each time, the mononuclear cells were centrifuged at 1500 rpm for 10 min. • 6) The supernatant was removed, then 1 mL of 1640 medium was added and mixed uniformly. A small amount of the mixture was taken for cell counting.
The prepared PBMCs were plated in a 96-well plate (Costar, 3894) (2×10^5 cells per well). Each compound in Table 3 was taken and added into the wells with plated cells at ten concentrations with uniform gradient distribution (0.0001-10 μM, diluted with […] medium containing […]).

[1] = Homo sapiens, PBMC, 24 h, 37 °C, no pretreatment marked, read-out: EC50 IFN-γ ratio (inducing human PBMCs to produce IFN-γ)
[2] = Homo sapiens, PBMC, 24 h, 37 °C, Note a: sample pretreated with human liver microsomal enzyme, 2 h, read-out: EC50 IFN-γ ratio (inducing human PBMCs to produce IFN-γ)
[3] = Homo sapiens, PBMC, 24 h, 37 °C, Note c: sample pretreated with Cathepsin-B (10 μg) in PBS, room temperature, 3 h, read-out: EC50 IFN-γ ratio (inducing human PBMCs to produce IFN-γ)

## CCCCOc1nc(N)c2[nH]c(=O)n(Cc3cn(CCOCCOCCOCC(=O)N[C@H](CCCCN=[N+]=[N-])C(=O)O)nn3)c2n1 [Compound 102-N3]
[1]
  EC50: 180 nM

## CC[C@H](C)[C@@H]([C@@H](CC(=O)N1CCCC1[C@H](OC)[C@@H](C)C(=O)N[C@H](C)[C@@H](O)c1ccccc1)OC)N(C)C(=O)[C@@H](NC(=O)[C@H](C(C)C)N(C)C(=O)OCc1ccc(NC(=O)[C@H](CCCNC(N)=O)NC(=O)[C@@H](NC(=O)C(CCCCc2cn(CCOCCOCCOCCNC(=O)CCN3C(=O)C=CC3=O)nn2)NC(=O)CCC(=O)NCc2ccc(Cn3c(=O)[nH]c4c(N)nc(OCCOC)nc43)cc2)C(C)C)cc1)C(C)C (stereo partly shown) [Compound K1]
[1]
  EC50: 100 nM

## COCCOc1nc(N)c2[nH]c(=O)n(Cc3ccc(CNC(=O)CCC(=O)N[C@@H](CCCCNC(=O)OCc4ccc(NC(=O)[C@H](CCCNC(N)=O)NC(=O)[C@@H](NC(=O)CCCCCN5C(=O)C=CC5=O)C(C)C)cc4)C(=O)NCCOCCOCCOCCOCCNC(=O)CCC(=O)N4Cc5ccccc5C#Cc5ccccc54)cc3)c2n1 [Compound K2]
[1]
  EC50: 50 nM

## COCCOc1nc(N)c2[nH]c(=O)n(Cc3ccc(CNC(=O)CCC(=O)NC(CCCCc4cn(CCOCCOCCOCCNC(=O)CCN5C(=O)C=CC5=O)nn4)C(=O)N[C@H](C(=O)N[C@@H](CCCNC(N)=O)C(=O)Nc4ccc(COC(=O)NC[C@H](C)c5ccc(-c6c(O)cc(C)c7[nH]c(=O)c8sccc8c67)cc5)cc4)C(C)C)cc3)c2n1 (stereo partly shown) [Compound K3]
[1]
  EC50: 200 nM

## CC[C@H](C)[C@@H]([C@@H](CC(=O)N1CCCC1[C@H](OC)[C@@H](C)C(=O)N[C@H](C)[C@@H](O)c1ccccc1)OC)N(C)C(=O)[C@@H](NC(=O)[C@H](C(C)C)N(C)C(=O)OCc1ccc(NC(=O)[C@H](CCCNC(N)=O)NC(=O)[C@@H](NC(=O)C(CCCCc2cn(CCOCCOCCOCCC(=O)O)nn2)NC(=O)CCC(=O)NCc2ccc(Cn3c(=O)[nH]c4c(N)nc(OCCOC)nc43)cc2)C(C)C)cc1)C(C)C (stereo partly shown) [Compound K5]
[1]
  EC50: 130 nM

## CCCCOc1nc(N)c2[nH]c(=O)n(Cc3cn(CCOCCOCCOCC(=O)N[C@H](CCCCNC(=O)OCc4ccc(NC(=O)[C@H](CCCNC(N)=O)NC(=O)[C@@H](NC(=O)CCCCCN5C(=O)C=CC5=O)C(C)C)cc4)C(=O)NCCOCCOCCOCCOCCNC(=O)CCC(=O)N4Cc5ccccc5C#Cc5ccccc54)nn3)c2n1 [Compound K7]
[1]
  EC50: 45 nM

## CCCCOc1nc(N)c2[nH]c(=O)n(Cc3cn(CCOCCOCCOCC(=O)N[C@H](CCCCc4cn(COCCOCCOCCOCCN5C(=O)C=CC5=O)nn4)C(=O)N[C@H](C(=O)N[C@@H](CCCNC(N)=O)C(=O)Nc4ccc(COC(=O)NC[C@H](C)c5ccc(-c6c(O)cc(C)c7[nH]c(=O)c8sccc8c67)cc5)cc4)C(C)C)nn3)c2n1 [Compound K8]
[1]
  EC50: 110 nM

## CCCCOc1nc(N)c2c(n1)n(Cc1cn(CCOCCOCCOCCNC(=O)OCc3ccc(NC(=O)[C@H](CCCNC(N)=O)NC(=O)[C@@H](NC(=O)CCCCC(=O)O)C(C)C)cc3)nn1)c(=O)n2C1CCCO1 (stereo partly shown) [Compound K9]
[2]
  EC50: 9000 nM

## COCCOc1nc(N)c2c(n1)n(Cc1ccc(CNC(=O)CCc3cn(CCOCCOCCOCCNC(=O)OCc4ccc(NC(=O)[C@H](CCCNC(N)=O)NC(=O)[C@@H](NC(=O)CCCCCN5C(=O)C=CC5=O)C(C)C)cc4)nn3)cc1)c(=O)n2C(=O)N1CCN(C)CC1 [Compound K10]
[2]
  EC50: 210 nM

## COCCOc1nc(N)c2c(n1)n(Cc1ccc(CNC(=O)CCc3cn(CCOCCOCCOCCNC(=O)OCc4ccc(NC(=O)[C@H](CCCNC(N)=O)NC(=O)[C@@H](NC(=O)CCCCC(=O)O)C(C)C)cc4)nn3)cc1)c(=O)n2C1CCCO1 (stereo partly shown) [Compound K12]
[2]
  EC50: 200 nM

## CCCCOc1nc(N)c2c(n1)c(Cc1ccc3c(c1)CN(C(=O)/C=C/C(=O)c1ccc(OC)cc1)CC3)cn2C(=O)OCc1ccc(NC(=O)[C@H](CCCNC(N)=O)NC(=O)[C@@H](NC(=O)CCOCCOCCOCCOCCN2C(=O)C=CC2=O)C(C)C)cc1 [Compound K13]
[3]
  EC50: 110 nM

## CCOC(=O)NC(=O)n1c(=O)n(Cc2ccc(CNC(=O)CCc3cn(CCOCCOCCOCCNC(=O)CCN4C(=O)C=CC4=O)nn3)cc2)c2nc(OCCOC)nc(N)c21 [Compound K14]
[2]
  EC50: 10 nM

## CCOC(=O)NC(=S)n1c(=O)n(Cc2ccc(CNC(=O)CCc3cn(CCOCCOCCOCCNC(=O)CCN4C(=O)C=CC4=O)nn3)cc2)c2nc(OCCOC)nc(N)c21 [Compound K15]
[2]
  EC50: 12 nM

## COCCOc1nc(N)c2c(n1)n(Cc1ccc(CNC(=O)CCc3cn(CCOCCOCCOCCNC(=O)CCN4C(=O)C=CC4=O)nn3)cc1)c(=O)n2COC(=O)OC(C)C [Compound K16]
Homo sapiens, PBMC, 24 h, pH 5, 24 h, 37 °C; Note d: sample pretreated by hydrolysis, acetate buffer pH 5, 37 °C, 72 h; read-out: EC50 IFN-γ ratio (inducing human PBMCs to produce IFN-γ)
  EC50: 11 nM

## CC[C@@]1(O)C(=O)OCc2c1cc1n(c2=O)Cc2c-1nc1cc(F)c(C)c3c1c2[C@@H](NC(=O)CO[Si](OCCOCCOCCNC(=O)C(CCCCc1cn(CCOCCOCCOCCNC(=O)CCN2C(=O)C=CC2=O)nn1)NC(=O)CCC(=O)NCc1ccc(Cn2c(=O)[nH]c4c(N)nc(OCCOC)nc42)cc1)(C(C)C)C(C)C)CC3 (stereo partly shown) [Compound K17]
Homo sapiens, PBMC; 24 h, 37 °C; no pretreatment marked; read-out: EC50 IFN-γ ratio (inducing human PBMCs to produce IFN-γ)
  EC50: 210 nM

## CCCCOc1nc(N)c2[nH]c(=O)n(Cc3cn(CCOCCOCCOCCN(C[C@H](C)c4ccc(-c5c(O)cc(C)c6[nH]c(=O)c7sccc7c56)cc4)C(=O)OCc4ccc(NC(=O)[C@H](CCCNC(N)=O)NC(=O)[C@@H](NC(=O)CCCCCN5C(=O)C=CC5=O)C(C)C)cc4)nn3)c2n1 [Compound K18]
[1]
  EC50: 90 nM

## CCCCOc1nc(N)c2[nH]c(=O)n(Cc3cn(CCOCCOCCOCCn4cc(CCCCN(C[C@H](C)c5ccc(-c6c(O)cc(C)c7[nH]c(=O)c8sccc8c67)cc5)C(=O)OCc5ccc(NC(=O)[C@H](CCCNC(N)=O)NC(=O)[C@@H](NC(=O)CCCCCN6C(=O)C=CC6=O)C(C)C)cc5)nn4)nn3)c2n1 [Compound K19]
[1]
  EC50: 80 nM

## C=CC(=O)N1CCN(c2ncnc3c(F)c(-c4c(F)cccc4OCCc4cn(CCCNc5nc(NCCOCCOCCOCCNC(=O)CCC(=O)NCc6ccc(Cn7c(=O)[nH]c8c(N)nc(OCCOC)nc87)cc6)nc(N6CCC(CNC(=O)OCc7ccc(NC(=O)[C@H](CCCNC(N)=O)NC(=O)[C@@H](NC(=O)CCOCCOCCOCCN=[N+]=[N-])C(C)C)cc7)CC6)n5)nn4)c(Cl)cc23)CC1 [Compound K21]
[1]
  EC50: 6 nM

## CCCCOc1nc(N)c2c(n1)N(Cc1cn(CCNC(=O)OCc3ccc(NC(=O)[C@H](CCCNC(N)=O)NC(=O)[C@@H](NC(=O)CCOCCOCCOCCOCCN(CCOCCOCCOCCOCCC(=O)N[C@H](C(=O)N[C@@H](CCCNC(N)=O)C(=O)Nc4ccc(COC(=O)NCCn5cc(Cn6c(=O)[nH]c7c(N)nc(OCCCC)nc76)nn5)cc4)C(C)C)C(=O)CCN4C(=O)C=CC4=O)C(C)C)cc3)nn1)C(=O)C2 [Compound K22]
[3]
  EC50: 80 nM

## COCCOc1nc(N)c2[nH]c(=O)n(Cc3ccc(CNC(=O)CCc4cn(CCOCCOCCOCCN(CCOCCOCCOCCn5cc(CCC(=O)NCc6ccc(Cn7c(=O)[nH]c8c(N)nc(OCCOC)nc87)cc6)nn5)C(=O)OCc5ccc(NC(=O)[C@H](CCCNC(N)=O)NC(=O)[C@@H](CC(=O)NCOCCOCCOCCN=[N+]=[N-])C(C)C)cc5)nn4)cc3)c2n1 [Compound K23]
[1]
  EC50: 30 nM

## COCCOc1nc(N)c2[nH]c(=O)n(Cc3ccc(CNC(=O)CCC(=O)NC(CCCCc4cn(CCOCCOCCOCCNC(=O)CCN5C(=O)C=CC5=O)nn4)C(=O)NCCOCCOCCOCCOCCNC(=O)CCC(=O)N4Cc5ccccc5C#Cc5ccccc54)cc3)c2n1 (stereo not shown) [Compound K24]
[1]
  EC50: 3 nM

## COCCOc1nc(N)c2[nH]c(=O)n(Cc3ccc(CNC(=O)CCC(=O)NC(CCCCc4cn(CCOCCOCCOCCNC(=O)CCN5C(=O)C=CC5=O)nn4)C(=O)NCCOCCOCCOCCOc4ccc(-c5nnc(C)nn5)cc4)cc3)c2n1 (stereo not shown) [Compound K25]
[1]
  EC50: 5 nM
